Patent US4190665A, “Substituted arylaliphatic acids” (Lipha, Lyonnaise Industrielle Pharmaceutique, priority 1976, dated 1980)

Tests used:
[1] = system: edema triggered by injecting a carrageenin suspension into the sole of the foot of the rat; assay: carrageenin-induced edema test (Winter and Risley), anti-inflammatory effect; assay type: in vivo; settings: po, orally, read-out: AD30 orally (active dose 30, inhibiting edema development by 30%)
Protocol: (§1) The anti-inflammatory effect of the new drugs was determined in two tests.
(a) In the carrageenin-induced edema test according to Winter, C. A. and Risley, E. A. (Proc. Soc. Exp. Biol. Med. 1962, 111, 544-547) the protection conferred by the drug administered orally to the rat against an edema triggered by injecting a carrageenin suspension into the sole of the foot of the rat was investigated. The table below gives the "active dose 30" (inhibiting edema development by 30%) of both compounds.

[2] = system: painful contractures, caused by intraperitoneal injection of a dilute acetic acid solution; assay: analgesic activity in the mouse by the method of Koster (acetic acid contractures); assay type: in vivo; settings: po, orally, read-out: Active Dose 50 (diminished painful contractures by 50%)
Description: The analgesic activity can be determined in the mouse by the method of Koster, R., Anderson, M., Debeer, E. J., Federation Proc., 1959, 18, 412. A determination was made of the active dose 50 of the drug which, administered orally, diminished painful contractures, caused by intraperitoneal injection of a dilute acetic acid solution, by 50%.

[3] = LD50, orally, mouse (acute toxicity); settings: in vivo, po
[4] = system: erythema (produced by exposure to ultraviolet radiation) of the shaved back of the guinea pig; assay: UV erythema test on the guinea pig (Winder et al.), anti-inflammatory effect; assay type: in vivo, albino guinea pig; settings: Cavia porcellus, po, orally, read-out: Active Dose 50 (decreased erythema by 50%)
Protocol: as §1
(b) In the UV erythema test on the guinea pig (Winder, C. V., Wax, J., Burr, V., Been, M., Rosiere, C. E., Arch. Int. Pharmacodyn., 116, 261, 1958) the protective activity against precocious inflammation in the albino guinea pig was investigated. A determination was made of the active dose 50 which, administered orally to the animal, decreased erythema (produced by exposure to ultraviolet radiation) of the shaved back of the guinea pig by 50%.

Row | Structure (SMILES) | ED30 [1] [mg/kg] | ED50 [2] [mg/kg] | LD50 [3] [mg/kg] | ED50 [4] [mg/kg]
1 | CC(C(=O)O)c1ccc(-n2cccc2)c(N)c1 (centres unmarked) [Compound B, 2-(3'-amino-4'-[1"-pyrrolyl]phenyl) propionic acid] | 12 | 19 | 3000 | 4.7
2 | CC(C(=O)O)c1ccc(-n2cccc2)c([N+](=O)[O-])c1 (centres unmarked) [Compound A, 2-(3'-nitro-4'-[1"-pyrrolyl]phenyl) propionic acid] | 12 | 50 | 3200 | 18.4
